In patent publication US7795385B2, “Use of bombesin/gastrin-releasing peptide antagonists for the treatment of inflammatory conditions, acute lung injury and bipolar disorder” (Bexar Global, Inc., priority 2004, dated 2010):

Columns and labels:
[1] = tested on: amphetamine (AMPH)-induced hyperactivity in rats; test: Amphetamine-induced hyperactivity test (open field, model of mania); format: in vivo, male Wistar rats; details: RC-3095 0.1, 1.0 or 10.0 mg/kg i.p.
Protocol: Animals. A total of 120 male Wistar rats (age, 2.5-3 months; weight, 220-340 g) from an inhouse breeding colony were used. They were housed in plastic cages, 5 to a cage, with water and food freely available, under a 12-h light/dark cycle (lights on at 7:00 h). All experimental procedures were performed in accordance with the NIH Guide for the Care and Use of Laboratory Animals and the Brazilian Society for Neuroscience and Behavior (SBNeC) recommendations for animal care.
Drugs and pharmacological procedures. d-amphetamine (AMPH, 2.0 mg/kg) and RC-3095 (a gift from Dr. J. Engel, Zentaris GmbH, Germany) were dissolved in saline (SAL, 0.9% NaCl). All solutions were prepared immediately prior to administration. Animals were given a 10 ml/kg intraperitoneal (i.p.) injection of SAL or RC-3095 (0.1, 1.0 or 10.0 mg/kg) followed by an i.p. injection of SAL or AMPH […] 30 min later. Thus, the resulting experimental groups were: SAL/SAL; SAL/AMPH, RC-3095 0.1 mg/kg/AMPH, RC-3095 1.0 mg/kg/AMPH, RC-3095 10.0 mg/kg/AMPH, RC 3095 0.1 mg/kg/SAL; RC-3095 1.0 mg/kg/SAL; and RC-3095 10.0 mg/kg/SAL.
Hyperactivity test. […] Crossings of the black lines and rearings performed were counted. […]
Statistical analysis. All data are presented as mean±S.E.M. Differences among experimental groups were determined by ANOVA. […]

[2] = tested on: patient with rheumatoid arthritis; test: Administration to a patient with rheumatoid arthritis; format: in vivo, human; details: 6 mg RC-3095 twice daily s.c.
Protocol: The composition consists of a white lyophilised cake in a 4 ml injection vial. One injection vial will be reconstituted with 2 ml water for injection.
A patient with rheumatoid arthritis, started on March 22 with 6 mg of RC-3095, twice daily. Application subcutaneously.
At baseline visit the patient presented with joint pain grade 3, joint inflammation grade 2 and depression grade 2.
Before start with RC-3095 they were already taken methotrexate, subcutaneously, once a week, and corticosteroids.
They were followed every two weeks by physical examination and laboratorial exams.

CC(C)C[C@@H](CN[C@@H](CC(C)C)C(N)=O)NC(=O)[C@H](Cc1c[nH]cn1)NC(=O)CNC(=O)[C@@H](NC(=O)[C@H](C)NC(=O)[C@H](Cc1c[nH]c2ccccc12)NC(=O)[C@H](CCC(N)=O)NC(=O)[C@H]1Cc2c([nH]c3ccccc23)CN1)C(C)C [RC-3095, H-D-Tpi-Gln-Trp-Ala-Val-Gly-His-Leu-psi-Leu-NH2]
other behavioral measures (sedation) [1]: did not alter | adverse events [2]: only local (nodes and pruritus)
